We go through one compound from patent US7741281B2, “Hepatitis C virus inhibitors” (Bristol-Myers Squibb Company, priority 2005, dated 2010).

The term EC50 denotes the concentration at which the effect is half-maximal. One may read the IC50 as the concentration that inhibits the measured activity by half.

Assay [1] concerns HCV replicon in HUH-7 cells. As to the kind of experiment: HCV replicon FRET assay. The note with it: Hepatitis C virus. It counts as cell-based, HCV strain 1b. From the text: An HCV replicon whole cell system was established as described by Lohmann V, Korner F, Koch J, Herian U, Theilmann L, Bartenschlager R., Science 285(5424):110-3 (1999). This system enabled us to evaluate the effects of our HCV Protease compounds on HCV RNA replication. Briefly, using the HCV strain 1b sequence described in the Lohmann paper (Assession number: AJ238799), an HCV cDNA was synthesized by Operon Technologies, Inc. (Alameda, Calif.), and the full-length replicon was then assembled in plasmid pGem9zf(+) (Promega, Madison, Wis.) using standard molecular biology techniques. The replicon consists of (i) the HCV 5′ UTR fused to the first 12 amino acids of the capsid protein, (ii) the neomycin phosphotransferase gene (neo), (iii) the IRES from encephalomyocarditis virus (EMCV), and (iv) HCV NS3 to NS5B genes and the HCV 3′ UTR. Plasmid DNAs were linearized with ScaI and RNA transcripts were synthesized in vitro using the T7 MegaScript transcription kit (Ambion, Austin, Tex.) according to manufacturer's directions. In vitro transcripts of the cDNA were transfected into the human hepatoma cell line, HUH-7. […] Resulting cell lines were characterized for positive and negative strand RNA production and protein production over time.
The HCV replicon FRET assay was developed to monitor the inhibitory effects of compounds described in the disclosure on HCV viral replication. HUH-7 cells, constitutively expressing the HCV replicon, were grown in Dulbecco's Modified Eagle Media (DMEM) (Gibco-BRL) containing 10% Fetal calf serum (FCS) (Sigma) and 1 mg/ml G418 (Gibco-BRL). Cells were seeded the night before (1.5×10^4 cells/well) in 96-well tissue-culture sterile plates. Compound and no compound controls were prepared in DMEM containing 4% FCS, 1:100 Penicillin/Streptomysin (Gibco-BRL), 1:100 L-glutamine and 5% DMSO in the dilution plate (0.5% DMSO final concentration in the assay). Compound/DMSO mixes were added to the cells and incubated for 4 days at 37° C. After 4 days, cells were first assessed for cytotoxicity using alamar Blue (Trek Diagnotstic Systems) for a CC50 reading. The toxicity of compound (CC50) was determined by adding 1/10th volume of alamar Blue to the media incubating the cells. After 4 hours, the fluorescence signal from each well was read, with an excitation wavelength at 530 nm and an emission wavelength of 580 nm, using the Cytofluor Series 4000 (Perspective Biosystems). Plates were then rinsed thoroughly with Phosphate-Buffered Saline (PBS) (3 times 150 μl). The cells were lysed with 25 μl of a lysis assay reagent containing an HCV protease substrate (5× cell Luciferase cell culture lysis reagent (Promega #El 53A) diluted to 1× with distilled water, NaCl added to 150 mM final, the FRET peptide substrate (as described for the enzyme assay above) diluted to 10 μM final from a 2 mM stock in 100% DMSO. […]. The plate was then placed into the Cytofluor 4000 instrument which had been set to 340 nm excitation/490 nm emission, automatic mode for 21 cycles and the plate read in a kinetic mode. EC50 determinations were carried out as described for the IC50 determinations.
On the technique in general: A replicon is a self-replicating genome or part of one, used to study replication in cells.

In assay [2] the test system is human pancreatic chymotrypsin. The assay can be described thus: Specificity assay, chymotrypsin (pNA substrate). It counts as biochemical. The note with it: read-out: Chymotrypsin activity in the specificity assays (IC50). The method, then: (§1) The specificities of compounds of the present disclosure were determined against a variety of serine proteases: human neutrophil elastase (HNE), porcine pancreatic elastase (PPE) and human pancreatic chymotrypsin and one cysteine protease: human liver cathepsin B. In all cases, a 96-well plate format protocol using colorimetric p-nitroaniline (pNA) substrate or fluorometric Amino-Methyl-Coumarin (AMC) substrate, specific for each enzyme was used as described previously (PCT Patent Application No. WO 00/09543) with some modifications. All enzymes were purchased from Sigma or EMDbiosciences while the substrates were from Bachem.
(§2) Each pNA assay included a 2 h enzyme-inhibitor pre-incubation at room temperature followed by addition of substrate and hydrolysis to ˜15% conversion as measured on a Spectramax Pro microplate reader. The cathepsin B assay was initiated by adding substrate to a 10 min enzyme-inhibitor pre-incubation at room temperature, and the assay plate measured immediately using the Cytofluor Series 4000. Compound concentrations varied from 100 to 0.4 μM depending on their potency.
(§3) The final conditions for each assay were as follows: […]
(§4) The percentage of inhibition was calculated using the formula: [1−((UVinh−UVblank)/(UVctl−UVblank))]×100 […]

The target of assay [3] is T1, porcine pancreatic elastase (PPE) (Sus scrofa, UniProt P00772).
T1 construct: purchased Sigma or EMDbiosciences
T1 sequence (P00772 27-266): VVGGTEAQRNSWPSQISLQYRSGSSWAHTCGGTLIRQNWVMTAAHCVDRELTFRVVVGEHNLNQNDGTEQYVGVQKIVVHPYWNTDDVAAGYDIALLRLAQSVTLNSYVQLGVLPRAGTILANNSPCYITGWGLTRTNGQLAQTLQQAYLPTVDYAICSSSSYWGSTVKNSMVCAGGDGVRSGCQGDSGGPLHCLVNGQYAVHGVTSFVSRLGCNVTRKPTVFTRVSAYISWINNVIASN
The assay can be described thus: Specificity assay, porcine pancreatic elastase (pNA substrate). It counts as biochemical. The note with it: read-out: PPE activity in the specificity assays (IC50). The method, then:
as §1, §2, §3, §4

The next assay concerns the target T2, human liver cathepsin B (Homo sapiens, UniProt P07858).
T2 construct: purchased Sigma or EMDbiosciences; host or cells: human liver (as named)
The assay can be described thus: Specificity assay, cathepsin B (AMC substrate). The settings on record: read-out: Cathepsin B activity in the specificity assays (IC50). The class given is biochemical. The method, then: as §1, §2, §3, §4

Where two headings read alike, the source gives them in different places.

As for `COc1c(O[C@@H]2C[C@H]3C(=O)N[C@]4(C(=O)NS(=O)(=O)C5CC5)C[C@H]4/C=C\CCCCC[C@H](NC(=O)OC(C)(C)C)C(=O)N3C2)ccc2c(Cl)nccc12` [Compound 3], the EC50 in assay [1] (96 h, HUH-7 replicon cells, 4 days, read-out: EC50 value in the replicon FRET assay) is 0.0146 µM; in assay [1] (Huh-7, HCV replicon, read-out: EC50 Activity Range), less than 0.1 µM. Besides, the IC50 in assay [2] is more than 100 µM; in assay [3], more than 100 µM; on human liver cathepsin B it was 100 µM.
